Consider 34 molecules from patent US12390449B2, “Substituted 2-aminobenzimidazoles analogs as antibiofilm agents” (priority 2018, dated 2025).

Structures can show the parent of a compound that is named as a salt. A value given as a limit tells only on which side of the number the result lay.

One assay concerns Salmonella typhimurium ATCC14028 Biofilms. Briefly: Inhibitory effect of test compounds on Salmonella typhimurium ATCC14028 biofilms (crystal violet, 96-well). The assay is classed as cell-based. Conditions: Salmonella enterica, 24 h, read-out: IC50 (μM), inhibition of biofilm formation, S. typhimurium ATCC14028, 24 h at 30° C., crystal violet OD540. On the procedure: Procedure to Determine the Inhibitory Effect of Test Compounds on Salmonella typhimurium ATCC14028 Biofilms: […] Stock solutions of predetermined concentrations of the test compounds were then made in 1 mL of bacterial culture. […] Sample plates were then incubated for 24 h at 30° C. After incubation, the medium was discarded from the wells and the plates were washed thoroughly with water. Plates were then stained with 110 μL of 0.1% solution of crystal violet (CV) and then incubated at ambient temperature for 30 min. Plates were washed with water again and the remaining stain was solubilized with 200 μL of 95% ethanol. A sample of 125 μL of solubilized CV stain from each well was transferred to the corresponding wells of a polystyrene microtiter dish. Biofilm inhibition was quantitated by measuring the OD540 of each well in which a negative control lane wherein no biofilm was formed served as a background and was subtracted out.
The IC50 is the concentration that gives 50% inhibition. On to `CCCCCc1ccc(C(=O)Nc2ccc3c(c2)nc(N)n3CCc2ccccc2)cc1` [Compound 1, N-(2-Amino-1-phenethyl-1H-benzo[d]imidazol-5-yl)-4-pentylbenzamide hydrochloride], for which the IC50 is 13.1 ± 0.6 µM.

`CCCCCCCCn1c(N)nc2cc(NC(=O)c3ccc(CCCCC)cc3)ccc21` [Compound 5a, N-(2-Amino-1-octyl-1H-benzo[d]imidazol-5-yl)-4-pentylbenzamide hydrochloride]: the IC50 was 6.66 ± 0.32 µM.

Take `CCCCCc1ccc(C(=O)Nc2ccc3c(c2)nc(N)n3CCCCc2ccccc2)cc1` [Compound 5b, N-(2-Amino-1-(4-phenylbutyl)-1H-benzo[d]imidazol-5-yl)-4-pentylbenzamide hydrochloride]: the IC50 is 9.59 ± 0.23 µM. `CCCCCCn1c(N)nc2cc(NC(=O)c3ccc(CCCCC)cc3)ccc21` [Compound 5c, N-(2-Amino-1-hexyl-1H-benzo[d]imidazol-5-yl)-4-pentylbenzamide hydrochloride]: the IC50 stood at 10.8 ± 0.56 µM. Turning to `CCCCCc1ccc(C(=O)Nc2ccc3c(c2)nc(N)n3CCc2c[nH]c3ccccc23)cc1` [Compound 5e, N-(1-(2-(1H-Indol-3-yl)ethyl)-2-amino-1H-benzo[d]imidazol-5-yl)-4-pentylbenzamide hydrochloride], the IC50 lay within 10 to 15 µM. Consider `CCCCCc1ccc(C(=O)Nc2ccc3c(c2)nc(N)n3CCCC)cc1` [Compound 5f, N-(2-Amino-1-butyl-1H-benzo[d]imidazol-5-yl)-4-pentylbenzamide hydrochloride], for which the IC50 lay in the range of 15 to 20 µM.

On to `CCCCCc1ccc(C(=O)Nc2ccc3c(c2)nc(N)n3C2CCCC2)cc1` [Compound 5g, N-(2-Amino-1-cyclopentyl-1H-benzo[d]imidazol-5-yl)-4-pentylbenzamide hydrochloride], for which the IC50 fell in the range of 15 to 20 µM. `CCCCCc1ccc(C(=O)Nc2ccc3c(c2)nc(N)n3C2CCCCC2)cc1` [Compound 5h, N-(2-Amino-1-cyclohexyl-1H-benzo[d]imidazol-5-yl)-4-pentylbenzamide hydrochloride]: the 50% inhibitory concentration (IC50) lay within 15 to 20 µM. As for `CCCCCc1ccc(C(=O)Nc2ccc3c(c2)nc(N)n3CCc2cnc[nH]2)cc1` [Compound 5j, N-(1-(2-(1H-Imidazol-5-yl)ethyl)-2-amino-1H-benzo[d]imidazol-5-yl)-4-pentylbenzamide dihydrochloride], the IC50 fell in the range of 20 to 40 µM.

Consider `CCCCCc1ccc(C(=O)Nc2ccc3c(c2)nc(N)n3C(C)C)cc1.Cl` [Compound 5k, N-(2-Amino-1-isopropyl-1H-benzo[d]imidazol-5-yl)-4-pentylbenzamide hydrochloride], for which the IC50 is 20 to 40 µM. In the case of `CCCCCc1ccc(C(=O)Nc2ccc3c(c2)nc(N)n3C)cc1.Cl` [Compound 5l, N-(2-Amino-1-methyl-1H-benzo[d]imidazol-5-yl)-4-pentylbenzamide hydrochloride], the IC50 was above 40 µM. On to `CCCCCCCCCCn1c(N)nc2cc(NC(=O)c3ccc(CCCCC)cc3)ccc21.Cl` [Compound 5m, N-(2-Amino-1-decyl-1H-benzo[d]imidazol-5-yl)-4-pentylbenzamide hydrochloride], for which the concentration for half-maximal inhibition (IC50) is above 50 µM. For `CCCCCCCCCCCCn1c(N)nc2cc(NC(=O)c3ccc(CCCCC)cc3)ccc21.Cl` [Compound 5n, N-(2-Amino-1-dodecyl-1H-benzo[d]imidazol-5-yl)-4-pentylbenzamide hydrochloride], the IC50 is above 50 µM. For `CCCCCc1ccc(C(=O)Nc2ccc3[nH]c(N)nc3c2)cc1` [Compound 5o, N-(2-Amino-1H-benzo[d]imidazol-5-yl)-4-pentylbenzamide hydrochloride], the IC50 lay within 20 to 40 µM. Turning to `CCCCCc1ccc(C(=O)Nc2ccc3nc(N)n(CCCC)c3c2)cc1` [Compound 9a, N-(2-Amino-1-butyl-1H-benzo[d]imidazol-6-yl)-4-pentylbenzamide hydrochloride], the IC50 fell in the range of 10 to 15 µM. In the case of `CCCCCCn1c(N)nc2ccc(NC(=O)c3ccc(CCCCC)cc3)cc21` [Compound 9b, N-(2-Amino-1-hexyl-1H-benzo[d]imidazol-6-yl)-4-pentylbenzamide hydrochloride], the IC50 was in the range of 10 to 15 µM. The same measure, in the same setting: in the case of `CCCCCc1ccc(C(=O)Nc2ccc3nc(N)n(C)c3c2)cc1` [Compound 9c, N-(2-Amino-1-methyl-1H-benzo[d]imidazol-6-yl)-4-pentylbenzamide hydrochloride] it was 20 to 40 µM; in that of `CCCCCc1ccc(C(=O)Nc2ccc3nc(N)n(CC)c3c2)cc1` [Compound 9d, N-(2-Amino-1-ethyl-1H-benzo[d]imidazol-6-yl)-4-pentylbenzamide hydrochloride], 20 to 40 µM; in that of `CCCCCc1ccc(C(=O)Nc2ccc3nc(N)n(C(C)C)c3c2)cc1` [Compound 9e, N-(2-Amino-1-isopropyl-1H-benzo[d]imidazol-6-yl)-4-pentylbenzamide hydrochloride], 20 to 40 µM. In the case of `Nc1nc2cc(NC(=O)c3ccc(Br)c(Br)c3)ccc2n1CCCc1ccccc1` [Compound 10b, N-(2-Amino-1-(3-phenylpropyl)-1H-benzo[d]imidazol-5-yl)-3,4-dibromobenzamide hydrochloride], the IC50 is below 7 µM. In the case of `Nc1nc2cc(NC(=O)c3cc(Br)cc(Br)c3)ccc2n1CCCc1ccccc1` [Compound 10c, N-(2-Amino-1-(3-phenylpropyl)-1H-benzo[d]imidazol-5-yl)-3,5-dibromobenzamide hydrochloride], the IC50 was below 7 µM. On the same count and under the same terms, to `CCCCc1ccc(C(=O)Nc2ccc3c(c2)nc(N)n3CCCc2ccccc2)cc1` [Compound 10f, N-(2-Amino-1-(3-phenylpropyl)-1H-benzo[d]imidazol-5-yl)-4-butylbenzamide hydrochloride] belongs 10 to 15 µM; to `CCCOc1ccc(C(=O)Nc2ccc3c(c2)nc(N)n3CCCc2ccccc2)cc1` [Compound 10g, N-(2-Amino-1-(3-phenylpropyl)-1H-benzo[d]imidazol-5-yl)-4-propoxybenzamide hydrochloride], 10 to 15 µM; to `CCCCOc1ccc(C(=O)Nc2ccc3c(c2)nc(N)n3CCCc2ccccc2)cc1` [Compound 10j, N-(2-Amino-1-(3-phenylpropyl)-1H-benzo[d]imidazol-5-yl)-4-butoxybenzamide hydrochloride], 15 to 20 µM. For `CCCc1ccc(C(=O)Nc2ccc3c(c2)nc(N)n3CCCc2ccccc2)cc1` [Compound 10k, N-(2-Amino-1-(3-phenylpropyl)-1H-benzo[d]imidazol-5-yl)-4-propylbenzamide hydrochloride], the IC50 was in the range of 15 to 20 µM. Turning to `CCCCCCc1ccc(C(=O)Nc2ccc3c(c2)nc(N)n3CCCc2ccccc2)cc1` [Compound 10l, N-(2-Amino-1-(3-phenylpropyl)-1H-benzo[d]imidazol-5-yl)-4-hexylbenzamide hydrochloride], the IC50 is 15 to 20 µM. As for `CCCCCCCc1ccc(C(=O)Nc2ccc3c(c2)nc(N)n3CCCc2ccccc2)cc1` [Compound 10m, N-(2-Amino-1-(3-phenylpropyl)-1H-benzo[d]imidazol-5-yl)-4-heptylbenzamide hydrochloride], the 50% inhibitory concentration (IC50) fell in the range of 15 to 20 µM. The same measure, in the same setting: to `CCCCCCCCC(=O)Nc1ccc2c(c1)nc(N)n2CCCc1ccccc1` [Compound 10n, N-(2-Amino-1-(3-phenylpropyl)-1H-benzo[d]imidazol-5-yl)nonanamide hydrochloride] belongs 15 to 20 µM.

Regarding `CCc1ccc(C(=O)Nc2ccc3c(c2)nc(N)n3CCCc2ccccc2)cc1` [Compound 10o, N-(2-Amino-1-(3-phenylpropyl)-1H-benzo[d]imidazol-5-yl)-4-ethylbenzamide hydrochloride], the IC50 is 20 to 40 µM. On the same count and under the same terms, in the case of `CCCCCCC(=O)Nc1ccc2c(c1)nc(N)n2CCCc1ccccc1` [Compound 10p, N-(2-Amino-1-(3-phenylpropyl)-1H-benzo[d]imidazol-5-yl)heptanamide hydrochloride] it was 20 to 40 µM; in that of `CCCCCCCC(=O)Nc1ccc2c(c1)nc(N)n2CCCc1ccccc1` [Compound 10q, N-(2-Amino-1-(3-phenylpropyl)-1H-benzo[d]imidazol-5-yl)octanamide hydrochloride], above 40 µM.

Still in this assay, the particulars now being: compared with parent compound 1.
For `CCCCCc1ccc(C(=O)Nc2ccc3c(c2)nc(N)n3C(C)C)cc1.Cl` [Compound 5k, N-(2-Amino-1-isopropyl-1H-benzo[d]imidazol-5-yl)-4-pentylbenzamide hydrochloride], the “antibiofilm activity (in words)” value is reported as “reduced or completely abolished antibiofilm activity”. On to `CCCCCc1ccc(C(=O)Nc2ccc3c(c2)nc(N)n3C)cc1.Cl` [Compound 5l, N-(2-Amino-1-methyl-1H-benzo[d]imidazol-5-yl)-4-pentylbenzamide hydrochloride], for which the “antibiofilm activity (in words)” value is listed as “reduced or completely abolished antibiofilm activity”. As to `CCCCCCCCCCn1c(N)nc2cc(NC(=O)c3ccc(CCCCC)cc3)ccc21.Cl` [Compound 5m, N-(2-Amino-1-decyl-1H-benzo[d]imidazol-5-yl)-4-pentylbenzamide hydrochloride], the “antibiofilm activity (in words)” value is “reduced or completely abolished antibiofilm activity”. On to `CCCCCCCCCCCCn1c(N)nc2cc(NC(=O)c3ccc(CCCCC)cc3)ccc21.Cl` [Compound 5n, N-(2-Amino-1-dodecyl-1H-benzo[d]imidazol-5-yl)-4-pentylbenzamide hydrochloride], for which the “antibiofilm activity (in words)” value was “reduced or completely abolished antibiofilm activity”.

Still in this assay, the particulars now being: read-out: IC50 (μM), inhibition of biofilm formation; S. typhimurium ATCC14028, 24 h at 30° C., crystal violet OD540.
`CCCCCc1ccc(C(=O)Nc2ccc3c(c2)nc(N)n3CC(C)C)cc1` [Compound 5d, N-(2-Amino-1-isbutyl-1H-benzo[d]imidazol-5-yl)-4-pentylbenzamide hydrochloride]: the IC50 was 10 to 15 µM.

For `CCCCCCCCCC(=O)Nc1ccc2c(c1)nc(N)n2CCCc1ccccc1` [Compound 10h, N-(2-Amino-1-(3-phenylpropyl)-1H-benzo[d]imidazol-5-y0decanamide hydrochloride], the IC50 lay within 10 to 15 µM.

For `CCCCCCCCCCC(=O)Nc1ccc2c(c1)nc(N)n2CCCc1ccccc1` [Compound 10i, N-(2-Amino-1-(3-phenylpropyI)-1H-benzo[d]imidazol-5-yhundecanamide hydrochloride], the IC50 was 10 to 15 µM.

Staying with this assay, now noted: read-out: IC50 (μM), inhibition of biofilm formation; S. typhimurium ATCC14028, 24 h at 30° C., crystal violet OD540; listed as 15b, hydrochloride.
`Nc1nc2cc(NC(=O)c3ccc(Br)c(Br)c3)ccc2n1CCCc1ccccc1` [Compound 10b, N-(2-Amino-1-(3-phenylpropyl)-1H-benzo[d]imidazol-5-yl)-3,4-dibromobenzamide hydrochloride]: the IC50 came to 5.38 ± 0.79 µM.

Staying with this assay, now noted: read-out: IC50 (μM), inhibition of biofilm formation; S. typhimurium ATCC14028, 24 h at 30° C., crystal violet OD540; listed as 15c, hydrochloride.
On to `Nc1nc2cc(NC(=O)c3cc(Br)cc(Br)c3)ccc2n1CCCc1ccccc1` [Compound 10c, N-(2-Amino-1-(3-phenylpropyl)-1H-benzo[d]imidazol-5-yl)-3,5-dibromobenzamide hydrochloride], for which the IC50 is 5.58 ± 0.21 µM.
